Data taken from BindingDB's records for doi:10.7270/Q27P8WVP (Nmmlsc, 2010).

Target: Regulator of G-protein signaling 4 (Homo sapiens, UniProt P49798)
Experiment: RGS4-Galphao binding modulators, SAR follow-up, biochemical, multiplexed bead flow cytometry, SAR compounds (AID 2295)

Regulator of G-protein signaling 4, sequence (P49798 whole entry): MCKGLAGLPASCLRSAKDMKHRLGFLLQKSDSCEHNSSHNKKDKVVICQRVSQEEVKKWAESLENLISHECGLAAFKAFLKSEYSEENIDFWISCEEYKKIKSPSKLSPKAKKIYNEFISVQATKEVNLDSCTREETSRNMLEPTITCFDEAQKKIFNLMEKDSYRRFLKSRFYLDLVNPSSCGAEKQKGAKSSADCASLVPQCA

- Ki: 1020 nM
SMILES: NS(=O)(=O)c1ccc(N=NCc2ccc(O)c(O)c2O)c([N+](=O)[O-])c1 [4-[[(E)-(2,3-dihydroxy-4-oxo-1-cyclohexa-2,5-dienylidene)methyl]hydrazo]-3-nitrobenzenesulfonamide]
